Each block holds one substance with its values, some of them ahead of it. Where no end group is shown, it is not given here.
Tests used:
[1] = tested on: mégacaryocytopoïèse in vivo; assay: Megakaryocytopoiesis in vivo in normal mice (marrow and blood counts); details: souris Balb/c, 40 µg/kg s.c. twice daily for 4 days, sampled day 2 after last injection; mean ± SEM
Protocol: L'effet du dodécapeptide de l'exemple 1 sur la mégacaryocytopoïèse in vivo a été testé sur des souris normales selon une méthode décrite par HAN et al., dans l'article C.R. Acad. Sci. Paris, (1991), 313, Série III, 553-558 précité. Chaque groupe contient 5-10 souris Balb/c. Le peptide est injecté par voie sous-cutanée deux fois par jour pendant 4 jours aux concentrations de 1 µg et 5 µg par souris pour chaque administration. Les échantillons de moëlle et/ou de sang ont été prélevés au jour J2 qui suit la dernière injection.
Les souris ont été tuées par dislocation cervicale. Les cellules médullaires ont été obtenues à partir des fémurs et le sang a été obtenu par ponction cardiaque. Les cellules médullaires à la concentration de 2 x 10^5 cellules mononucléées par ml ont été remises en culture en cinq exemplaires en présence de sérum de porc aplasique pendant une semaine pour tester le nombre de progéniteurs mégacaryocytaires (CFU-MK). Le nombre des mégacaryocytes a été évalué sur des cellules médullaires non cultivées mais ensemencées dans des boîtes de culture après obtention à partir des fémurs. Le nombre de plaquettes, de globules blancs et le taux d'hémoglobine ont été mesurés en utilisant un compteur hématopoiétique automatique. […]

[2] = tested on: mégacaryocytopoièse humaine; details: cited from earlier work
cellules HEL = details: prior-art comparators; cited from earlier work
CAM de poulet = details: inhibition of angiogenesis in chicken CAM; cited from earlier work

Sang H (hémoglobine) [1]: 15,2±0,8 g/100 ml
Sang L (leucocytes) [1]: 2,80±0,4 10^3/µl
Substance: NGRKICLDLEAP [exemple 1]

Substance: C-24: peptide constitué par les 24 derniers aminoacides (i.e. 47-70) de l'extrémité C-terminale du pF4 (NGRKICLDLQAPLYKKIIKKLLES; Platelet factor 4; UniProt P02776 78-101, looked up, fragment)
dose inhibiting mégacaryocytopoièse humaine in vitro ([2]; relatively high dose): ~25 µg/mL
maturation des cellules HEL (cellules HEL): limitent la maturation
prolifération des cellules HEL (cellules HEL): n'agissent pas sur leur prolifération

Substance: C-13: peptide constitué par les 13 derniers aminoacides (i.e. 58-70) de l'extrémité C-terminale du pF4 (PLYKKIIKKLLES; Platelet factor 4; UniProt P02776 89-101, looked up, fragment)
anti-angiogénèse (CAM de poulet): propriétés anti-angiogénèse
effet sur la mégacaryocytopoïèse ([2]; in vitro): aucun effet

Substance: C-41: peptide constitué par les 41 derniers aminoacides (i.e. 30-70) de l'extrémité C-terminale du pF4 (IKAGPHCPTAQLIATLKNGRKICLDLQAPLYKKIIKKLLES; Platelet factor 4; UniProt P02776 61-101, looked up, fragment)
anti-angiogénèse (CAM de poulet): propriétés anti-angiogénèse
